Data taken from PMC6325233, “A Novel Actin Binding Drug with In Vivo Efficacy” (Antimicrobial Agents and Chemotherapy, 2018).

Legend:
[1] = test system: cancer cell lines; details: several cancer cell lines vs human fibroblast control; cited from earlier work
Procedure: Natural products with in vitro antifungal properties that target the actin cytoskeleton were previously reported ([51]). […] Occidiofungin, on the other hand, is well tolerated at 5 mg/kg or 20 mg/kg when administered intravenously or subcutaneously, respectively ([22], [25]). This dose is much higher than the MIC of occidiofungin against several fungal pathogens. ...

[2] = test system: Aspergillus flavus 28517; assay: MIC susceptibility testing; format: cell-based; design: key to MIC, 50% inhibition: -: indicates absence of isolates with 50% inhibition endpoint; details: CLSI M38-A2
Procedure: (§1) Occidiofungin was purified from a liquid culture of Burkholderia contaminans MS14 as previously described ([21]). MIC susceptibility testing was performed according to the CLSI M27-A3 and M38-A2 standards for the susceptibility testing of yeasts and filamentous fungi, respectively. S. cerevisiae deletion mutants were obtained from the commercially available BY4741 deletion library (Thermo Scientific).

[3] = test system: Candida krusei 9541; assay: MIC susceptibility testing; format: cell-based; design: key to MIC, 50% inhibition: -: indicates absence of isolates with 50% inhibition endpoint; details: CLSI M27-A3
Procedure: as §1

[4] = test system: Rhizopus oryzae 28403; assay: MIC susceptibility testing; format: cell-based; design: key to MIC, 50% inhibition: -: indicates absence of isolates with 50% inhibition endpoint; details: CLSI M38-A2
Procedure: as §1

[5] = test system: Aspergillus flavus 28455; assay: MIC susceptibility testing; format: cell-based; design: key to MIC, 50% inhibition: -: indicates absence of isolates with 50% inhibition endpoint; details: CLSI M38-A2
Procedure: as §1

[6] = test system: Aspergillus fumigatus 28435; assay: MIC susceptibility testing; format: cell-based; design: key to MIC, 50% inhibition: -: indicates absence of isolates with 50% inhibition endpoint; details: CLSI M38-A2
Procedure: as §1

[7] = test system: Rhizopus microsporus 28506; assay: MIC susceptibility testing; format: cell-based; design: key to MIC, 50% inhibition: -: indicates absence of isolates with 50% inhibition endpoint; details: CLSI M38-A2
Procedure: as §1

[8] = test system: Candida albicans 28102; assay: MIC susceptibility testing; format: cell-based; design: key to MIC, 50% inhibition: -: indicates absence of isolates with 50% inhibition endpoint; details: CLSI M27-A3
Procedure: as §1

[9] = test system: Cryptococcus neoformans 27708; assay: MIC susceptibility testing; format: cell-based; design: key to MIC, 50% inhibition: -: indicates absence of isolates with 50% inhibition endpoint; details: CLSI M27-A3; 72 hours
Procedure: as §1

[10] = test system: Mucor racemosus 27784; assay: MIC susceptibility testing; format: cell-based; design: key to MIC, 50% inhibition: -: indicates absence of isolates with 50% inhibition endpoint; details: CLSI M38-A2
Procedure: as §1

[11] = test system: Candida tropicalis 9624; assay: MIC susceptibility testing; format: cell-based; design: key to MIC, 50% inhibition: -: indicates absence of isolates with 50% inhibition endpoint; details: CLSI M27-A3
Procedure: as §1

[12] = test system: Aspergillus flavus 28445; assay: MIC susceptibility testing; format: cell-based; design: key to MIC, 50% inhibition: -: indicates absence of isolates with 50% inhibition endpoint; details: CLSI M38-A2
Procedure: as §1

[13] = test system: Fusarium solani 28386; assay: MIC susceptibility testing; format: cell-based; design: key to MIC, 50% inhibition: -: indicates absence of isolates with 50% inhibition endpoint; details: CLSI M38-A2
Procedure: as §1

[14] = test system: Rhizopus microsporus 27785; assay: MIC susceptibility testing; format: cell-based; design: key to MIC, 50% inhibition: -: indicates absence of isolates with 50% inhibition endpoint; details: CLSI M38-A2
Procedure: as §1

[15] = test system: Candida glabrata 25742; assay: MIC susceptibility testing; format: cell-based; design: key to MIC, 50% inhibition: -: indicates absence of isolates with 50% inhibition endpoint; details: CLSI M27-A3
Procedure: as §1

[16] = test system: Cryptococcus neoformans 28446; assay: MIC susceptibility testing; format: cell-based; design: key to MIC, 50% inhibition: -: indicates absence of isolates with 50% inhibition endpoint; details: CLSI M27-A3; 72 hours
Procedure: as §1

[17] = test system: Mucor fragilis 27782; assay: MIC susceptibility testing; format: cell-based; design: key to MIC, 50% inhibition: -: indicates absence of isolates with 50% inhibition endpoint; details: CLSI M38-A2
Procedure: as §1

occidiofungin
8 µg/mL: MIC, 100% inhibition ([4]; 24 hours) | MIC, 100% inhibition ([4]; 48 hours) | MIC, 100% inhibition ([7]; 24 hours) | MIC, 100% inhibition ([7]; 48 hours) | MIC, 100% inhibition ([14]; 48 hours)
4 µg/mL: MIC, 100% inhibition ([2]; 24 hours) | MIC, 100% inhibition ([2]; 48 hours) | MIC, 100% inhibition ([3]; 24 hours) | MIC, 100% inhibition ([3]; 48 hours) | MIC, 50% inhibition ([4]; 24 hours) | MIC, 100% inhibition ([5]; 24 hours) | MIC, 100% inhibition ([5]; 48 hours) | MIC, 50% inhibition ([7]; 24 hours) | MIC, 100% inhibition ([10]; 24 hours) | MIC, 100% inhibition ([10]; 48 hours) | MIC, 100% inhibition ([12]; 24 hours) | MIC, 100% inhibition ([12]; 48 hours) | MIC, 100% inhibition ([13]; 24 hours) | MIC, 100% inhibition ([13]; 48 hours) | MIC, 100% inhibition ([14]; 24 hours) | MIC, 100% inhibition ([17]; 24 hours) | MIC, 100% inhibition ([17]; 48 hours)
1 µg/mL: MIC, 100% inhibition [16]
approximately 10 -fold: sensitivity of several cancer cell lines vs human fibroblast cell line [1]
2 µg/mL: MIC, 50% inhibition ([3]; 24 hours) | MIC, 50% inhibition ([5]; 24 hours) | MIC, 100% inhibition ([6]; 24 hours) | MIC, 100% inhibition ([6]; 48 hours) | MIC, 100% inhibition ([8]; 24 hours) | MIC, 100% inhibition ([8]; 48 hours) | MIC, 100% inhibition [9] | MIC, 50% inhibition ([10]; 24 hours) | MIC, 100% inhibition ([11]; 24 hours) | MIC, 100% inhibition ([11]; 48 hours) | MIC, 50% inhibition ([12]; 24 hours) | MIC, 50% inhibition ([13]; 24 hours) | MIC, 50% inhibition ([14]; 24 hours) | MIC, 100% inhibition ([15]; 24 hours) | MIC, 100% inhibition ([15]; 48 hours) | MIC, 50% inhibition ([17]; 24 hours)
-: MIC, 50% inhibition ([2]; 24 hours) | MIC, 50% inhibition ([2]; 48 hours) | MIC, 50% inhibition ([3]; 48 hours) | MIC, 50% inhibition ([4]; 48 hours) | MIC, 50% inhibition ([5]; 48 hours) | MIC, 50% inhibition ([6]; 24 hours) | MIC, 50% inhibition ([6]; 48 hours) | MIC, 50% inhibition ([7]; 48 hours) | MIC, 50% inhibition ([8]; 24 hours) | MIC, 50% inhibition ([8]; 48 hours) | MIC, 50% inhibition [9] | MIC, 50% inhibition ([10]; 48 hours) | MIC, 50% inhibition ([11]; 24 hours) | MIC, 50% inhibition ([11]; 48 hours) | MIC, 50% inhibition ([12]; 48 hours) | MIC, 50% inhibition ([13]; 48 hours) | MIC, 50% inhibition ([14]; 48 hours) | MIC, 50% inhibition ([15]; 24 hours) | MIC, 50% inhibition ([15]; 48 hours) | MIC, 50% inhibition [16] | MIC, 50% inhibition ([17]; 48 hours)
